Assay results: US6340758B1, “Conformationally semi-constrained quinoxaline 2,3-diones as neuroprotective agents” (Warner-Lambert Company, priority 1997, dated 2002)

melting point: 205 to 206 °C
SMILES: Cc1c([N+](=O)[O-])cc2[nH]c(=O)c(=O)[nH]c2c1-c1nnc(N)o1 [Example 1, 5-(5-Amino-[1,3,4]oxadiazol-2-yl)-6-methyl-7-nitro-1,4-dihydro-quinoxaline-2,3-dione]
